Results published in paper PMC8871619, “Pogostone inhibits the activity of CYP3A4, 2C9, and 2E1 in vitro” (Pharmaceutical Biology, 2021).

Key:
CYP3A4 [1] = molecular target: T1, CYP3A4 (Homo sapiens, UniProt P08684); experiment: Inhibition of CYP3A4 (testosterone 6β-hydroxylation) in human liver microsomes; type: in vitro ADME
T1 construct: Pooled human liver microsomes (HLMs) were purchased from BD Biosciences; tissue BD Biosciences; host or cells: pooled human liver microsomes
Experimental: (§1) The effect of pogostone on the activity of CYP450s was investigated with probe reactions (summarized in Table 1) in HLMs in accordance with previous studies (Zhang et al. [2007], [2020]). All incubations were conducted in triplicate with a volume of 200 μL, containing 100 mM potassium phosphate buffer (pH 7.4), NADPH-generating system (1 mM NADP^+, 10 mM glucose-6-phosphate, 1 U/mL of glucose-6-phosphate dehydrogenase, and 4 mM MgCl2), corresponding probe substrates, HLM, and 100 μM pogostone or positive inhibitors. The concentrations of positive inhibitors were: 10 μM furafylline for CYP1A2, 1 μM ketoconazole for CYP3A4, 10 μM tranylcypromine for CYP2A6, 50 μM clomethiazole for CYP2E1, 10 μM quinidine for CYP2D6, 10 μM sulphaphenazole for CYP2C9, 50 μM tranylcypromine for CYP2C19, and 5 μM montelukast for CYP2C8.
(§2) A 3 min preincubation was performed at 37 °C before the reactions were initiated by the addition of the NADPH-generating system. After the incubation, 100 μL acetonitrile or 10% trichloroacetic (for CYP2A6) was added to terminate the reactions and placed on ice. The mixture was centrifuged at 12,000 rpm for 10 min, and an aliquot (50 μL) of supernatant was transferred for corresponding metabolites analysis with HPLC.
(§3) The effect of pogostone on the activity of CYP450s was first investigated with 100 μM pogostone in HLMs. Then, the CYPs, of which the activity was inhibited by pogostone were incubated with 0, 2.5, 5, 10, 25, 50, and 100 μM pogostone and different probe substrates (20, 40, 60, and 100 μM testosterone for CYP3A4, 5, 10, 15, and 20 μM diclofenac for CYP2C9, or 25, 50, 150, and 250 μM chlorzoxazone for CYP2E1) to obtained the corresponding kinetic parameters, such as IC50 and Ki values.
(§4) The Lineweaver-Burk plots were used to obtain enzyme kinetic parameters by the least-squares linear regression of the inverse substrate concentration versus the inverse velocity. Inhibition data from the experiments that were conducted using multiple compound concentrations were represented by Dixon plots, and inhibition constant (Ki) values were calculated using non-linear regression according to the following equation: V=(VmaxS)/(Km(1+I/Ki)+S) where I is the concentration of the compound, Ki is the inhibition constant, S is the concentration of the substrate and Km is the substrate concentration at half the maximum velocity (Vmax) of the reaction. The mechanism of the inhibition was inspected using the Lineweaver–Burk plots and the enzyme inhibition models. The data comparison was performed using the Student’s t-test and performed using IBM SPSS statistics 20 (SPSS Inc., Chicago, IL, USA).

CYP2C9 [2] = molecular target: T2, CYP2C9 (Homo sapiens, UniProt P11712); experiment: Inhibition of CYP2C9 (diclofenac 4′-hydroxylation) in human liver microsomes; type: in vitro ADME
T2 construct: Pooled human liver microsomes (HLMs) were purchased from BD Biosciences; tissue BD Biosciences; host or cells: pooled human liver microsomes
T2 sequence (P11712 whole entry): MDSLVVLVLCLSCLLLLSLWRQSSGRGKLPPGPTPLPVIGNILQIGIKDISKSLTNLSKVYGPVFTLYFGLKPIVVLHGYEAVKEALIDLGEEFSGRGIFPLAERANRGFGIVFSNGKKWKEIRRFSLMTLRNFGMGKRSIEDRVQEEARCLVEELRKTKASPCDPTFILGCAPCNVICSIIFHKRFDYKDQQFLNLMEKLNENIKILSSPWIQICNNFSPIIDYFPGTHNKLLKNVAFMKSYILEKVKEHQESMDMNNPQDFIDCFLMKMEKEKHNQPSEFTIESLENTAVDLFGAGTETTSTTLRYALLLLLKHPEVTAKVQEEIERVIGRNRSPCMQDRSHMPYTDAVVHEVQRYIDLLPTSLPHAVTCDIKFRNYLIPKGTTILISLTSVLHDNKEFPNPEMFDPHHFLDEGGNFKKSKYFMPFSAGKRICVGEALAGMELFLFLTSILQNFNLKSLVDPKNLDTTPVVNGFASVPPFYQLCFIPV
Experimental: as §1, §2, §3, §4

CYP2E1 [3] = molecular target: T3, CYP2E1 (Homo sapiens, UniProt P05181); experiment: Inhibition of CYP2E1 (chlorzoxazone 6-hydroxylation) in human liver microsomes; type: in vitro ADME
T3 construct: Pooled human liver microsomes (HLMs) were purchased from BD Biosciences; tissue BD Biosciences; host or cells: pooled human liver microsomes
T3 sequence (P05181 whole entry): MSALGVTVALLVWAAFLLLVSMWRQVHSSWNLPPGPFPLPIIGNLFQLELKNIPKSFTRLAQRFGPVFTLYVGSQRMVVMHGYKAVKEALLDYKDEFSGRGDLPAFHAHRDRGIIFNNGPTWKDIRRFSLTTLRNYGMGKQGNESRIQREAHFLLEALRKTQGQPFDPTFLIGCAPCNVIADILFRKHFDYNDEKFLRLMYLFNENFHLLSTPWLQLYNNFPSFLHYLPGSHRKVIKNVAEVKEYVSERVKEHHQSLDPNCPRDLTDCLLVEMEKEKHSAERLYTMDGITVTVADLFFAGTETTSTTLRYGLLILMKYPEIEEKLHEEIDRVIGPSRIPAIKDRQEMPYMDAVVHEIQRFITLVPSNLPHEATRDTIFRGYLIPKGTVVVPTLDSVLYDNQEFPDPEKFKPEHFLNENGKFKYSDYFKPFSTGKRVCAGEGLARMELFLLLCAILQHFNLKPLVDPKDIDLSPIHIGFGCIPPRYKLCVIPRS
Experimental: as §1, §2, §3, §4

CYP3A4 [4] = molecular target: T1, CYP3A4; experiment: Time-dependent inhibition study of CYP3A4 in human liver microsomes; type: in vitro ADME
Experimental: (§5) The effect of incubation on the inhibitory effect of pogostone was evaluated by incubating for 0, 5, 10, 15, and 30 min at 37 °C. The concentration of pogostone in the time-dependent inhibition study was 20 μM with the 1 mg/mL HLMs. After incubation, an aliquot (20 μL) was transferred to another incubation tube (a final volume of 200 μL) containing an NADPH-generating system and probe substrates whose final concentrations were approximate to Km. Then, further incubations were performed to measure the residual activity. After being incubated for 10 and 30 min, the reactions were terminated by adding a 100 μL acetonitrile internal standard mix and then placed on ice; the corresponding metabolites were determined by HPLC.
Further experiments were performed to quantify the time-dependent inhibition by the KI and Kinact values. The incubation was conducted with a higher substrate concentration, which was about 4-fold to Km and 0, 2, 5, 10, 20, and 50 μM pogostone for 0, 5, 10, 15, and 30 min. A two-step incubation scheme was performed as described above.

CYP2C9 [5] = molecular target: T2, CYP2C9; experiment: Time-dependent inhibition study of CYP2C9 in human liver microsomes; type: in vitro ADME; conditions: 20 μM pogostone, 0-30 min, 1 mg/mL HLMs
Experimental: as §5

CYP2E1 [6] = molecular target: T3, CYP2E1; experiment: Time-dependent inhibition study of CYP2E1 in human liver microsomes; type: in vitro ADME; conditions: 20 μM pogostone, 0-30 min, 1 mg/mL HLMs
Experimental: as §5

[7] = set-up: method as in Chen et al. [2013]; conditions: rats, oral administration, 5 mg/kg pogostone; ref Chen et al. [2013]; cited from earlier work
[8] = 100 μM pogostone, HLMs, p < 0.05
[9] = HLMs, 0-50 μM pogostone, 0-30 min preincubation, substrate about 4-fold Km

T1 sequence (P08684 whole entry): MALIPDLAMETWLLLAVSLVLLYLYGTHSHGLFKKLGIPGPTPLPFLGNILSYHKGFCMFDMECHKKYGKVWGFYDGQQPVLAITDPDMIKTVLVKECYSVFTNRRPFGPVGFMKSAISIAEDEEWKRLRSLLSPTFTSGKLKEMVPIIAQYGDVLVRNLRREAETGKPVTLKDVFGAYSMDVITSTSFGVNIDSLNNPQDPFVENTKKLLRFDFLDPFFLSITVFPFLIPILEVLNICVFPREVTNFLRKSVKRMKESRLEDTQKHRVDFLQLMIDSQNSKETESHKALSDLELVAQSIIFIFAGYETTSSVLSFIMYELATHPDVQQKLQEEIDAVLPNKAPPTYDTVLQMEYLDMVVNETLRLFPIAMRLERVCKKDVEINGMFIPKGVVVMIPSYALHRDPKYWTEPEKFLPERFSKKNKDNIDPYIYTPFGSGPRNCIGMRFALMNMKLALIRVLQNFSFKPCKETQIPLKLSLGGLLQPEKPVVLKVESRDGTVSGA

Cc1cc(O)c(C(=O)CCC(C)C)c(=O)o1 [pogostone, Pogostone]
Activity of CYP3A4 compared with negative control (CYP3A4 [1]; [8]): significantly inhibited | IC50 (CYP3A4 [1]; HLMs, 0-100 μM pogostone, testosterone substrate): 11.4 µM | Ki (CYP3A4 [1]; HLMs, Lineweaver-Burk, 20-100 μM testosterone): 5.69 µM | Type of inhibition of CYP3A4 (CYP3A4 [1]; Lineweaver-Burk analysis): non-competitive | Activity of CYP2C9 compared with negative control (CYP2C9 [2]; [8]): significantly inhibited | IC50 (CYP2C9 [2]; HLMs, 0-100 μM pogostone, diclofenac substrate): 12.1 µM | Ki (CYP2C9 [2]; HLMs, Lineweaver-Burk, diclofenac): 6.46 µM | Type of inhibition of CYP2C9 (CYP2C9 [2]; Lineweaver-Burk analysis): competitive | Activity of CYP2E1 compared with negative control (CYP2E1 [3]; [8]): significantly inhibited | IC50 (CYP2E1 [3]; HLMs, 0-100 μM pogostone, chlorzoxazone substrate): 14.9 µM | Ki (CYP2E1 [3]; HLMs, Lineweaver-Burk, 25-250 μM chlorzoxazone): 7.67 µM | Type of inhibition of CYP2E1 (CYP2E1 [3]; Lineweaver-Burk analysis): competitive | Effect of incubation time on inhibition of CYP3A4 (CYP3A4 [4]; 20 μM pogostone, 0-30 min, 1 mg/mL HLMs): time-dependent | KI value of CYP3A4 (time-dependent inhibition) (CYP3A4 [4]; [9]): 5.86 µM | Kinact value of CYP3A4 (time-dependent inhibition) (CYP3A4 [4]; [9]): 0.056 min⁻¹ | Effect of incubation time on inhibition of CYP2C9 (CYP2C9 [5]): no significant effect | Effect of incubation time on inhibition of CYP2E1 (CYP2E1 [6]): no significant effect | Cmax [7]: 28990 ng/mL
